In ChEMBL document CHEMBL1201862, “PubChem BioAssay data set” (2004):
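Cultured in 96-well plates, cells were exposed to test compound for 48 hours across five concentrations. GI50 = concentration required for 50% inhibition of growth.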 Calls of active or inactive are those of the source. No stated cut-off is given here; in the data, active = GI50 up to about 1.1 µM and inactive = higher.

Experiments:
Experiment in all cases: growth of human tumour cells (NCI), 48 h
ACHN = system: ACHN
MOLT-4 = system: MOLT-4
OVCAR-4 = system: OVCAR-4
SNB-19 = system: SNB-19
OVCAR-3 = system: OVCAR-3
M14 = system: M14
SW-620 = system: SW-620
OVCAR-5 = system: OVCAR-5
CCRF-CEM = system: CCRF-CEM
DLD-1 = system: DLD-1
COLO 205 = system: COLO 205
A549 = system: A549
HOP-92 = system: HOP-92
786-0 = system: 786-0
TK-10 = system: TK-10
NCI-H226 = system: NCI-H226
KM12 = system: KM12
CAKI-1 = system: CAKI-1
SK-MEL-28 = system: SK-MEL-28
T47D = system: T47D

SMILES | GI50 (ACHN) | GI50 (MOLT-4) | GI50 (OVCAR-4) | GI50 (SNB-19) | GI50 (OVCAR-3) | GI50 (M14) | GI50 (SW-620) | GI50 (OVCAR-5) | GI50 (CCRF-CEM) | GI50 (DLD-1) | GI50 (COLO 205) | GI50 (A549) | GI50 (HOP-92) | GI50 (786-0) | GI50 (TK-10) | GI50 (NCI-H226) | GI50 (KM12) | GI50 (CAKI-1) | GI50 (SK-MEL-28) | GI50 (T47D)
COC(=O)/C=C/C1C(C(=O)OC)C2(C(=O)OC)CCC1(C(=O)OC)N2 (stereo not given) | > 100 µM (inactive) | > 100 µM (inactive) | > 100 µM (inactive) | > 100 µM (inactive) | > 100 µM (inactive) | > 100 µM (inactive) | > 100 µM (inactive) | > 100 µM (inactive) | > 100 µM (inactive) | > 100 µM (inactive) | > 100 µM (inactive) | > 100 µM (inactive) | > 100 µM (inactive) | > 100 µM (inactive) | > 100 µM (inactive) | > 100 µM (inactive) | > 100 µM (inactive) | > 100 µM (inactive) | – | –
CC1=C(C(=O)Nc2ccccc2)C(c2ccc(Cl)c(Cl)c2)C(C(=O)Nc2ccccc2)=C(C)N1 | 12.1 µM (inactive) | 0.512 µM (active) | 9.75 µM (inactive) | 12.9 µM (inactive) | 11.7 µM (inactive) | 11.5 µM (inactive) | 17 µM (inactive) | 18.3 µM (inactive) | 5.06 µM (inactive) | 12.1 µM (inactive) | 15.4 µM (inactive) | 7.48 µM (inactive) | – | 12.8 µM (inactive) | 33.9 µM (inactive) | – | 13 µM (inactive) | – | 12.8 µM (inactive) | –
CC(c1cccc2ccccc12)/[N+]([O-])=C/c1ccccc1 (stereo not given) | > 100 µM (inactive) | > 100 µM (inactive) | – | > 100 µM (inactive) | > 100 µM (inactive) | – | > 100 µM (inactive) | > 100 µM (inactive) | > 100 µM (inactive) | > 100 µM (inactive) | > 100 µM (inactive) | > 100 µM (inactive) | 29.5 µM (inactive) | > 100 µM (inactive) | > 100 µM (inactive) | – | > 100 µM (inactive) | – | > 100 µM (inactive) | –
CSc1nnc(CCC(=O)Nc2c(C)cccc2C)o1 | – | > 100 µM (inactive) | > 100 µM (inactive) | > 100 µM (inactive) | > 100 µM (inactive) | > 100 µM (inactive) | > 100 µM (inactive) | > 100 µM (inactive) | > 100 µM (inactive) | > 100 µM (inactive) | > 100 µM (inactive) | > 100 µM (inactive) | > 100 µM (inactive) | > 100 µM (inactive) | > 100 µM (inactive) | > 100 µM (inactive) | > 100 µM (inactive) | > 100 µM (inactive) | > 100 µM (inactive) | –
COc1ccc2nc(NC(=O)C(=O)C(C#N)c3ccc(Cl)c(Cl)c3)sc2c1 (stereo not given) | > 100 µM (inactive) | – | > 100 µM (inactive) | > 100 µM (inactive) | > 100 µM (inactive) | > 100 µM (inactive) | > 100 µM (inactive) | > 100 µM (inactive) | > 100 µM (inactive) | > 100 µM (inactive) | > 100 µM (inactive) | > 100 µM (inactive) | 33.9 µM (inactive) | > 100 µM (inactive) | > 100 µM (inactive) | > 100 µM (inactive) | > 100 µM (inactive) | > 100 µM (inactive) | > 100 µM (inactive) | –
CCCCCCCCNC(=O)SCCCC | 34.6 µM (inactive) | 22.5 µM (inactive) | 36.7 µM (inactive) | 27.5 µM (inactive) | 49.5 µM (inactive) | 33.8 µM (inactive) | 45.9 µM (inactive) | 37.2 µM (inactive) | 23.4 µM (inactive) | 43.4 µM (inactive) | 45.2 µM (inactive) | 33.9 µM (inactive) | 17.6 µM (inactive) | 30.6 µM (inactive) | 29 µM (inactive) | – | 55 µM (inactive) | 21.3 µM (inactive) | 38.2 µM (inactive) | –
CCCc1ccc(/N=C\c2cc(OC)c(OC)c(OC)c2)cc1 | > 100 µM (inactive) | > 100 µM (inactive) | > 100 µM (inactive) | > 100 µM (inactive) | > 100 µM (inactive) | > 100 µM (inactive) | > 100 µM (inactive) | > 100 µM (inactive) | 26.6 µM (inactive) | > 75.9 µM (inactive) | > 31.6 µM (inactive) | > 100 µM (inactive) | > 51.3 µM (inactive) | > 100 µM (inactive) | > 100 µM (inactive) | > 100 µM (inactive) | > 100 µM (inactive) | > 100 µM (inactive) | > 100 µM (inactive) | –
CC(C)C(=O)/C=C/c1ccccc1 | 81.5 µM (inactive) | 54.3 µM (inactive) | > 100 µM (inactive) | > 100 µM (inactive) | 31 µM (inactive) | > 100 µM (inactive) | 72.1 µM (inactive) | > 100 µM (inactive) | 23.9 µM (inactive) | 84.7 µM (inactive) | > 100 µM (inactive) | > 100 µM (inactive) | > 100 µM (inactive) | 46.5 µM (inactive) | – | – | 69.7 µM (inactive) | – | > 100 µM (inactive) | –
N#C/C(=C\c1ccc(O)cc1O)C(N)=O | 32.7 µM (inactive) | 58.6 µM (inactive) | > 100 µM (inactive) | 87.9 µM (inactive) | > 100 µM (inactive) | 82.2 µM (inactive) | > 100 µM (inactive) | > 100 µM (inactive) | > 100 µM (inactive) | 67.1 µM (inactive) | 12.9 µM (inactive) | > 100 µM (inactive) | 46.1 µM (inactive) | > 100 µM (inactive) | > 100 µM (inactive) | 41.6 µM (inactive) | > 100 µM (inactive) | 58.1 µM (inactive) | 93.3 µM (inactive) | –
O=c1[nH]c2c3ccccc3ccc2c2cc3c(cc12)OCO3 | 69.3 µM (inactive) | 40 µM (inactive) | > 100 µM (inactive) | > 100 µM (inactive) | > 100 µM (inactive) | > 100 µM (inactive) | 84.7 µM (inactive) | > 100 µM (inactive) | 69.8 µM (inactive) | > 100 µM (inactive) | > 100 µM (inactive) | 75.9 µM (inactive) | – | > 100 µM (inactive) | > 100 µM (inactive) | > 100 µM (inactive) | 75.5 µM (inactive) | 95.9 µM (inactive) | > 100 µM (inactive) | –
CCOC(=O)/C(=C/c1ccc(C#N)cc1)N(CC)CC | > 100 µM (inactive) | > 100 µM (inactive) | > 100 µM (inactive) | – | – | > 100 µM (inactive) | > 100 µM (inactive) | > 100 µM (inactive) | > 100 µM (inactive) | > 100 µM (inactive) | > 100 µM (inactive) | > 100 µM (inactive) | > 100 µM (inactive) | > 100 µM (inactive) | > 100 µM (inactive) | > 100 µM (inactive) | > 100 µM (inactive) | > 100 µM (inactive) | > 100 µM (inactive) | –
CC(C)=CCC/C(C)=C/CC/C(C)=C/C1CCC(=O)C1(C)C (stereo not given) | 16.6 µM (inactive) | 22.8 µM (inactive) | 24.9 µM (inactive) | 25.1 µM (inactive) | 17.1 µM (inactive) | 19.5 µM (inactive) | – | 19.1 µM (inactive) | 17.1 µM (inactive) | 17.4 µM (inactive) | 16.2 µM (inactive) | 27 µM (inactive) | 25.9 µM (inactive) | 17.9 µM (inactive) | 39.4 µM (inactive) | 14.7 µM (inactive) | 16.3 µM (inactive) | 20.7 µM (inactive) | 22.1 µM (inactive) | –
CC(C)c1cc(C(F)(F)F)nc(NNc2nc(C(C)C)cc(C(F)(F)F)n2)n1 | 56.8 µM (inactive) | > 100 µM (inactive) | 72.6 µM (inactive) | 41.7 µM (inactive) | 17.1 µM (inactive) | 67.9 µM (inactive) | > 100 µM (inactive) | > 100 µM (inactive) | > 100 µM (inactive) | – | > 100 µM (inactive) | 94 µM (inactive) | > 100 µM (inactive) | 28.4 µM (inactive) | 19.1 µM (inactive) | > 100 µM (inactive) | > 100 µM (inactive) | 64.7 µM (inactive) | > 100 µM (inactive) | > 100 µM (inactive)
CCOC(=O)c1c(C)noc1/N=N/N(CCO)CCO | 29 µM (inactive) | 21 µM (inactive) | 30.2 µM (inactive) | 37.2 µM (inactive) | 19.7 µM (inactive) | 49.5 µM (inactive) | 28.3 µM (inactive) | > 100 µM (inactive) | 16.9 µM (inactive) | – | 23.1 µM (inactive) | 36.8 µM (inactive) | 24.9 µM (inactive) | 38.2 µM (inactive) | 56.1 µM (inactive) | 23.6 µM (inactive) | 36.6 µM (inactive) | 61 µM (inactive) | 49.1 µM (inactive) | 10.8 µM (inactive)
CC(=O)N1CCC(=O)/C(=C/c2ccccc2)C1 | 22.1 µM (inactive) | 33.2 µM (inactive) | 19.3 µM (inactive) | > 100 µM (inactive) | 33.3 µM (inactive) | 33.8 µM (inactive) | 17.6 µM (inactive) | > 100 µM (inactive) | – | 24.1 µM (inactive) | 34.6 µM (inactive) | 71.9 µM (inactive) | 33.1 µM (inactive) | 27.7 µM (inactive) | 97.3 µM (inactive) | > 100 µM (inactive) | 24.3 µM (inactive) | 15.5 µM (inactive) | 18 µM (inactive) | –
CC[S+]([O-])C(=O)N(O)c1ccc(Cl)cc1 (stereo not given) | 11.1 µM (inactive) | 9.64 µM (inactive) | 38.3 µM (inactive) | 60.7 µM (inactive) | 31.6 µM (inactive) | 12.8 µM (inactive) | 18 µM (inactive) | 17.7 µM (inactive) | 12.6 µM (inactive) | – | 36 µM (inactive) | 67.3 µM (inactive) | 29.9 µM (inactive) | 21.7 µM (inactive) | 35.8 µM (inactive) | 84.1 µM (inactive) | 15.6 µM (inactive) | 17.7 µM (inactive) | 17.4 µM (inactive) | 31.3 µM (inactive)
